This is an account of results in PubChem BioAssay AID1963837 (Molecular Pharmacology Branch, DTP, NCI, 2024).

The subject of the assay is 843126-344-R-J1-PDC complex spheroid viability. Put plainly: Anticancer human tumor 843126-344-R-J1-PDC patient-derived melanoma cell line growth inhibition [POLQ]. The conditions noted are these: for viability, T/C: stronger effect = lower value. The procedure:
Multicellular complex tumor spheroid response to Polymerase (POL) inhibitors (novobiocin, ART-558, RP6685) in combination with a variety of drugs and investigational agents in selected tumor cell lines
The POL inhibitors (novobiocin, ART-558, and RP6685) were evaluated both individually and in combination with standard of care and investigational anticancer small molecules within a complex spheroid model of solid tumors. . Complex spheroids include a stromal component modeled by human endothelial cells (HUVEC) and fibroblasts modeled by human mesenchymal stem cells (MSCs). The concentration ranges selected for each drug and investigational agent were based upon clinically achievable concentrations if the clinical Cmax of the agent was known.
Compounds. The drugs and investigational agents: novobiocin (NSC847541), ART-558 (NSC835418), RP-6685 (NSC848927), peposertib (NSC802822), ceralasertib (NSC780249), elimusertib (NSC800525), camonsertib (NSC841442), AZD-1390 (NSC803789), olaparib (NSC753686), talazoparib (NSC767125), rucaparib (NSC756644), sotorasib (NSC818433), MRTX-1133 (NSC836407), SN-38 (NSC673596), topotecan (NSC609699), epotoside (NSC141540), doxorubicin (NSC123127), gemcitabine (NSC613327), 5-fluorouracil (NSC19893), paclitaxel (NSC125973), vemurafenib (NSC761431), MSA-2 (NSC828583), SN-011 (NSC837082), adavosertib (NSC754352), prexasertib (NSC758257), carboplatin (NSC241240) and oxaliplatin (NSC266046), were obtained from the National Cancer Institute (NCI) Developmental Therapeutics Program Chemical Repository (21). The FDA-approved anticancer drug set is available from the Developmental Therapeutics Program at https://dtp.cancer.gov/organization/dscb/obtaining/. […] The stock solutions were prepared in dimethyl sulfoxide (DMSO, Sigma-Aldrich, St. Louis, MO, cat. D2650), except for the platinum compounds which were prepared in saline (Quality Biological, Gaithersburg, MD, cat. 114-055-101), at 800-fold the tested concentration and stored at -70 degrees C prior to their use. All drugs and investigational agents were tested over a range starting from a high concentration at or near the clinical Cmax and decreasing in half-log increments. If the clinical Cmax for an agent had not been determined, the highest concentration tested was 10 microM, except for SN-38, which was tested at a high concentration of 1 microM.
Cell Culture. All cells were maintained in an incubator at 37 degrees C and 5% CO2 with 95% humidity. The PDC lines were cultured according to standard operating procedures established by the NCI PDMR (https://pdmr.cancer.gov). Table 3 of the manuscript, lists the cell lines along with the number of the three cell types plated to form the mct-spheroids and media for tumor cell growth. After thawing, all PDC lines, except 997537-175-T-J1-PDC and 415267-285-R-J2-PDC, were cultured in Matrigel-coated flasks prepared with a working solution of 1X Ham's F-12 nutrient mix, without supplementation (Thermo Fisher Scientific, cat. 11765054), 100 U/mL penicillin-streptomycin (Thermo Fisher Scientific, cat. 15140122), and 2.5% Matrigel (Corning Inc., Corning, NY, cat. 354248) for the first three passages. The two PDC lines 997537-175-T-J1-PDC and 415267-285-R-J2-PDC were cultured on uncoated flasks. The 857933-349-R-J2-PDC line was cultured in 6C/Colon 1B media containing advanced DMEM/F-12 (Thermo Fisher Scientific, cat. 12634028), 10 mM HEPES (Thermo Fisher Scientific, cat. 15630080), 1X GlutaMAX supplement (Thermo Fisher Scientific, cat. 35050061), 0.1 mg/mL primocin (InvivoGen, San Diego, CA, cat. ant-pm-2), 10% defined fetal bovine serum, heat inactivated (HyClone Laboratories Inc., Logan, UT, cat. SH30070.03HI), 50% L-WRN conditioned media (ATCC, cat. CRL-3276), 1.25 mM N-Acetyl-L-cysteine (Sigma-Aldrich, cat. A9165), 10 mM nicotinamide (Sigma-Aldrich, cat. N0636), 1X B-27 supplement (Thermo Fisher Scientific, cat. 17504044), 1X N-2 supplement (Thermo Fisher Scientific, cat. […]

Molecules are shown by their SMILES. “And” between values parts separate entries of the source, which are not always exact repeats. Identical values can stand only once.
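For viability, T/C in this document: spheroids exposed to drugs for seven days before readout.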

Take `CC1COCCN1c1cc(C2(O)CC3CCC(C2)O3)c2cnn(-c3ccn[nH]3)c2n1` (stereo not drawn) + Nc1ccc(C#CCN(C(=O)Cc2ncc(C(F)(F)F)cc2C(F)(F)F)c2ccc(F)cc2)nn1: the IC50 (in general, the concentration at which inhibition is half-maximal) (curve of first compound, second compound 0.0316 µM) turned out to be 390 nM; the IC50 (curve of first compound, second compound 0.1 µM) is 435 nM; the IC50 (curve of first compound, second compound 0.316 µM) was found to be 369 nM; the IC50 (curve of first compound, second compound 1 µM) worked out at 312 nM; the IC50 (curve of first compound, second compound 3.16 µM) amounted to 344 nM; the IC50 (curve of first compound, second compound 10 µM) turned out to be 210 nM. Also, the viability, T/C (usually the ratio of treated to control) is, setting by setting: (second compound 0.0316 µM, first compound 0.0316 µM) 82.7%; (second compound 0.0316 µM, first compound 0.1 µM) 65.4%; (second compound 0.0316 µM, first compound 0.316 µM) 54.9%; (second compound 0.0316 µM, first compound 1 µM) 37.2%; (second compound 0.0316 µM, first compound 3.16 µM) 29.7%; (second compound 0.0316 µM, first compound 10 µM) 20.2%. For the same compound, the viability, T/C runs as follows: (second compound 0.1 µM, first compound 0.0316 µM) 74.5%; (second compound 0.1 µM, first compound 0.1 µM) 79.2%; (second compound 0.1 µM, first compound 0.316 µM) 51.6%; (second compound 0.1 µM, first compound 1 µM) 37.6%; (second compound 0.1 µM, first compound 3.16 µM) 31.9%; (second compound 0.1 µM, first compound 10 µM) 22%. Besides, the viability, T/C was 73.2% (second compound 0.316 µM, first compound 0.0316 µM); 69.9% (second compound 0.316 µM, first compound 0.1 µM); 49.1% (second compound 0.316 µM, first compound 0.316 µM); 36.5% (second compound 0.316 µM, first compound 1 µM); 28% (second compound 0.316 µM, first compound 3.16 µM); 17.9% (second compound 0.316 µM, first compound 10 µM). Besides, the viability, T/C is, setting by setting: (second compound 1 µM, first compound 0.0316 µM) 85.9%; (second compound 1 µM, first compound 0.1 µM) 64.7%; (second compound 1 µM, first compound 0.316 µM) 48.5%; (second compound 1 µM, first compound 1 µM) 38.8%; (second compound 1 µM, first compound 3.16 µM) 28.7%; (second compound 1 µM, first compound 10 µM) 18.7%. The viability, T/C runs as follows: (second compound 3.16 µM, first compound 0.0316 µM) 79.1%; (second compound 3.16 µM, first compound 0.1 µM) 70.1%; (second compound 3.16 µM, first compound 0.316 µM) 46.6%; (second compound 3.16 µM, first compound 1 µM) 38.6%; (second compound 3.16 µM, first compound 3.16 µM) 29.1%; (second compound 3.16 µM, first compound 10 µM) 19.6%. The viability, T/C was 71.5% (second compound 10 µM, first compound 0.0316 µM); 56.7% (second compound 10 µM, first compound 0.1 µM); 47.8% (second compound 10 µM, first compound 0.316 µM); 33% (second compound 10 µM, first compound 1 µM); 26.7% (second compound 10 µM, first compound 3.16 µM); 20.1% (second compound 10 µM, first compound 10 µM).
Regarding `CNCc1ccc(-c2[nH]c3cc(F)cc4c3c2CCNC4=O)cc1`, the viability, T/C reads like this: (compound 0.0316 µM) 99.4% and 100% and 94.8%; (compound 0.1 µM) 77.4% and 81.4% and 75.4%; (compound 0.316 µM) 87.7% and 100% and 97.9%; (compound 1 µM) 76% and 91.1% and 107%; (compound 3.16 µM) 76% and 108% and 89%; (compound 10 µM) 73.8% and 87% and 79.3%. Moreover, the IC50 (curve of compound) was more than 10000 nM.
In the case of `COc1ccc([C@@H](O)c2cc(-c3ncnc4cc(N5CCOCC5)ccc34)c(F)cc2Cl)nn1`, the viability, T/C is, setting by setting: (compound 0.0316 µM) 103% and 80.6% and 95.7%; (compound 0.1 µM) 84.7% and 89.8% and 74.2%; (compound 0.316 µM) 92.1% and 102% and 93.4%; (compound 1 µM) 112% and 87.3% and 81.3%; (compound 3.16 µM) 86.4% and 73.3% and 59.9%; (compound 10 µM) 66.4% and 71.2% and 48.2%. The IC50 (curve of compound) was > 10000 nM and 8430 nM.
With `COC1C(OC(N)=O)C(O)C(Oc2ccc3c(O)c(NC(=O)c4ccc(O)c(CC=C(C)C)c4)c(=O)oc3c2C)OC1(C)C` (stereo not drawn), the viability, T/C (compound 1 µM) was 92% [middle of 13 runs]. Further, the IC50 (compound alone, run of 01/08/2024) was more than 10000 nM.
